Experimental data reported in PubChem BioAssay (NCI).
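Tested at 5 concentrations; 48 h exposure; 96-well plates; endpoints linearly interpolated, else capped at highest concentration. Abbreviation: GI50, concentration required for 50% inhibition of growth. At the TGI there is no net growth.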

Experiments:
Test in all cases: NCI tumour cell line growth inhibition, 48 h
HT29 colon = tested on: HT29 colon
K-562 leukemia = tested on: K-562 leukemia
MDA-MB-435 = tested on: MDA-MB-435
RPMI-8226 leukemia = tested on: RPMI-8226 leukemia
SK-MEL-28 melanoma = tested on: SK-MEL-28 melanoma
UACC-257 melanoma = tested on: UACC-257 melanoma
OVCAR-3 ovarian = tested on: OVCAR-3 ovarian
M14 melanoma = tested on: M14 melanoma
OVCAR-5 ovarian = tested on: OVCAR-5 ovarian
NCI-H460 lung = tested on: NCI-H460 lung
MDA-MB-231 breast = tested on: MDA-MB-231 breast
A498 renal = tested on: A498 renal
DU-145 prostate = tested on: DU-145 prostate
SNB-75 CNS = tested on: SNB-75 CNS
KM12 colon = tested on: KM12 colon
SK-MEL-2 melanoma = tested on: SK-MEL-2 melanoma
HS 578T breast = tested on: HS 578T breast
OVCAR-8 ovarian = tested on: OVCAR-8 ovarian
SF-539 CNS = tested on: SF-539 CNS
EKVX NSCLC = tested on: EKVX NSCLC
U251 CNS = tested on: U251 CNS
SF-268 CNS = tested on: SF-268 CNS
UO-31 renal = tested on: UO-31 renal
RXF 393 renal = tested on: RXF 393 renal
CCRF-CEM leukemia = tested on: CCRF-CEM leukemia
HCT-116 colon = tested on: HCT-116 colon
PC-3 prostate = tested on: PC-3 prostate
HL-60(TB) leukemia = tested on: HL-60(TB) leukemia
NCI-H226 lung = tested on: NCI-H226 lung
BT-549 breast = tested on: BT-549 breast
HOP-92 NSCLC = tested on: HOP-92 NSCLC
SNB-19 CNS = tested on: SNB-19 CNS
MOLT-4 leukemia = tested on: MOLT-4 leukemia
UACC-62 melanoma = tested on: UACC-62 melanoma
COLO 205 colon = tested on: COLO 205 colon
SF-295 CNS = tested on: SF-295 CNS
SW-620 colon = tested on: SW-620 colon
HCT-15 colon = tested on: HCT-15 colon
LOX IMVI melanoma = tested on: LOX IMVI melanoma
786-0 renal = tested on: 786-0 renal
SR leukemia = tested on: SR leukemia
NCI-H522 lung = tested on: NCI-H522 lung
MALME-3M melanoma = tested on: MALME-3M melanoma
SN12C renal = tested on: SN12C renal
SK-OV-3 ovarian = tested on: SK-OV-3 ovarian
MCF7 breast = tested on: MCF7 breast
HOP-62 NSCLC = tested on: HOP-62 NSCLC
NCI-H23 lung = tested on: NCI-H23 lung
T-47D breast = tested on: T-47D breast
IGROV1 ovarian = tested on: IGROV1 ovarian
ACHN renal = tested on: ACHN renal
NCI/ADR-RES ovarian = tested on: NCI/ADR-RES ovarian
OVCAR-4 ovarian = tested on: OVCAR-4 ovarian
TK-10 renal = tested on: TK-10 renal
SK-MEL-5 melanoma = tested on: SK-MEL-5 melanoma
A549 NSCLC = tested on: A549 NSCLC
HCC-2998 colon = tested on: HCC-2998 colon

With CC1=C[C@H]2O[C@@H]3C[C@H]4OC(=O)/C=C\C=C\[C@H]([C@@H](C)O)OCC/C(C)=C/C(=O)OC[C@@]2(CC1)[C@]4(C)[C@]31CO1 the GI50 (HT29 colon) was 4.26 nM, the TGI (HT29 colon) was 18.8 nM and the GI50 (K-562 leukemia) was 2.92 nM. The TGI (K-562 leukemia) was 14300 nM, the GI50 (MDA-MB-435) was 7.94 nM and the TGI (MDA-MB-435) was 31.9 nM. For the same compound, the GI50 (RPMI-8226 leukemia) was 3.82 nM, the TGI (RPMI-8226 leukemia) was 10.4 nM and the GI50 (SK-MEL-28 melanoma) was 5.3 nM. The TGI (SK-MEL-28 melanoma) was 22.5 nM, the GI50 (UACC-257 melanoma) was 11.2 nM and the TGI (UACC-257 melanoma) was 37.9 nM. The GI50 (OVCAR-3 ovarian) was 4.4 nM, the TGI (OVCAR-3 ovarian) was 34 nM and the GI50 (M14 melanoma) was 2.78 nM. It also gave a TGI (M14 melanoma) of 6.22 nM, a GI50 (OVCAR-5 ovarian) of 12 nM and a TGI (OVCAR-5 ovarian) of 67.9 nM. The GI50 (NCI-H460 lung) was 2.46 nM, the TGI (NCI-H460 lung) was 6.92 nM and the GI50 (MDA-MB-231 breast) was 17.4 nM. It also gave a TGI (MDA-MB-231 breast) of 77.5 nM, a GI50 (A498 renal) of 5.33 nM and a TGI (A498 renal) of 14.1 nM. For the same compound, the GI50 (DU-145 prostate) was 4.11 nM, the TGI (DU-145 prostate) was 13.9 nM and the GI50 (SNB-75 CNS) was 8.15 nM. It also gave a TGI (SNB-75 CNS) of 24.7 nM, a GI50 (KM12 colon) of 6.25 nM and a TGI (KM12 colon) of 132 nM. The GI50 (SK-MEL-2 melanoma) was 12.4 nM, the TGI (SK-MEL-2 melanoma) was 42.9 nM and the GI50 (HS 578T breast) was 7.34 nM. It also gave a TGI (HS 578T breast) of 29.8 nM, a GI50 (OVCAR-8 ovarian) of 9.15 nM and a TGI (OVCAR-8 ovarian) of 45.3 nM. It also gave a GI50 (SF-539 CNS) of 3.65 nM, a TGI (SF-539 CNS) of 11.5 nM and a GI50 (EKVX NSCLC) of 7.64 nM. It also gave a TGI (EKVX NSCLC) of 52.4 nM, a GI50 (U251 CNS) of 4.43 nM and a TGI (U251 CNS) of 26.4 nM. The GI50 (SF-268 CNS) was 10.6 nM, the TGI (SF-268 CNS) was 41.1 nM and the GI50 (UO-31 renal) was 5.43 nM. The TGI (UO-31 renal) was 33.5 nM, the GI50 (RXF 393 renal) was 4.37 nM and the TGI (RXF 393 renal) was 18.6 nM. For the same compound, the GI50 (CCRF-CEM leukemia) was 4.25 nM, the TGI (CCRF-CEM leukemia) was 14300 nM and the GI50 (HCT-116 colon) was 2.37 nM. For the same compound, the TGI (HCT-116 colon) was 8.21 nM, the GI50 (PC-3 prostate) was 6.63 nM and the TGI (PC-3 prostate) was 116 nM. For the same compound, the GI50 (HL-60(TB) leukemia) was 2.39 nM, the TGI (HL-60(TB) leukemia) was 6.84 nM and the GI50 (NCI-H226 lung) was 3.23 nM. For the same compound, the TGI (NCI-H226 lung) was 17.7 nM, the GI50 (BT-549 breast) was 3.87 nM and the TGI (BT-549 breast) was 10.8 nM. It also gave a GI50 (HOP-92 NSCLC) of 11.6 nM, a TGI (HOP-92 NSCLC) of 84.3 nM and a GI50 (SNB-19 CNS) of 4.14 nM. For the same compound, the TGI (SNB-19 CNS) was 26.1 nM, the GI50 (MOLT-4 leukemia) was 2.38 nM and the TGI (MOLT-4 leukemia) was 469 nM. For the same compound, the GI50 (UACC-62 melanoma) was 6.99 nM, the TGI (UACC-62 melanoma) was 23.5 nM and the GI50 (COLO 205 colon) was 7.33 nM. It also gave a TGI (COLO 205 colon) of 18.9 nM, a GI50 (SF-295 CNS) of 8.91 nM and a TGI (SF-295 CNS) of 34.9 nM. It also gave a GI50 (SW-620 colon) of 8.1 nM, a TGI (SW-620 colon) of 49.1 nM and a GI50 (HCT-15 colon) of 3.71 nM. The TGI (HCT-15 colon) was 23.6 nM, the GI50 (LOX IMVI melanoma) was 2.77 nM and the TGI (LOX IMVI melanoma) was 10.6 nM. It also gave a GI50 (786-0 renal) of 3.93 nM, a TGI (786-0 renal) of 24.9 nM and a GI50 (SR leukemia) of 4.05 nM. For the same compound, the TGI (SR leukemia) was 11.1 nM, the GI50 (NCI-H522 lung) was 2.63 nM and the TGI (NCI-H522 lung) was 10.6 nM. The GI50 (MALME-3M melanoma) was 3.23 nM, the TGI (MALME-3M melanoma) was 11.2 nM and the GI50 (SN12C renal) was 12 nM. The TGI (SN12C renal) was 74.2 nM, the GI50 (SK-OV-3 ovarian) was 6.89 nM and the TGI (SK-OV-3 ovarian) was 27.9 nM. The GI50 (MCF7 breast) was 2.76 nM, the TGI (MCF7 breast) was 18.9 nM and the GI50 (HOP-62 NSCLC) was 6.42 nM. It also gave a TGI (HOP-62 NSCLC) of 26.3 nM, a GI50 (NCI-H23 lung) of 6.14 nM and a TGI (NCI-H23 lung) of 27 nM. The GI50 (T-47D breast) was 8.31 nM, the TGI (T-47D breast) was 28.8 nM and the GI50 (IGROV1 ovarian) was 4.4 nM. It also gave a TGI (IGROV1 ovarian) of 41.7 nM, a GI50 (ACHN renal) of 8.52 nM and a TGI (ACHN renal) of 65 nM. For the same compound, the GI50 (NCI/ADR-RES ovarian) was 10.8 nM, the TGI (NCI/ADR-RES ovarian) was 98.9 nM and the GI50 (OVCAR-4 ovarian) was 7.24 nM. It also gave a TGI (OVCAR-4 ovarian) of 69.9 nM, a GI50 (TK-10 renal) of 9.23 nM and a TGI (TK-10 renal) of 39.5 nM. For the same compound, the GI50 (SK-MEL-5 melanoma) was 2.58 nM, the TGI (SK-MEL-5 melanoma) was 7.77 nM and the GI50 (A549 NSCLC) was 5.26 nM. For the same compound, the TGI (A549 NSCLC) was 32.9 nM, the GI50 (HCC-2998 colon) was 3.47 nM and the TGI (HCC-2998 colon) was 12.1 nM.
